Reference: patent US9446087B2, “Anti-resorptive and bone building dietary supplements and methods of use” (priority 2006, dated 2016)
Where “and” joins values, the source holds several entries; their conditions need not be identical. Identical values can stand only once. Marks after values point to notes of the source that are not given here.

Tests used:
BMP-2 promoter = assay: BMP2 Promoter assay (2T3-BMP2-Luciferase cells, luciferase); assay type: cell-based, murine
BMP-2 protein = assay: BMP-2 Protein Expression Assay (Hu09 cells, ELISA); assay type: cell-based
Method: The cells are treated with different proteasome inhibitors for 24 hours. After incubation, the conditioned media is transferred into microcentrifuge tubes and centrifuged at 14,000 rpm for 2-3 minutes to remove cellular debris. The concentration of BMP-2 protein in the supernatant is then determined using the standard BMP-2 Elisa Kit (R&D ELISA KIT DBP200). Recombinant hBMP-2 (R&D) is used as a standard.

BMP-2 = BMP-2 Gene Expression Assay (MG-63 cells, real time PCR); assay type: cell-based, human; details: 10 μg/ml
Method: It is also possible to test for BMP-2 gene expression and protein expression using assays similar to those described above for testing BMP-2 promoter activity. In particular, for gene expression, the human osteosarcoma cell line, MG-63 (ATCC# CRL-1427), is maintained in phenol-red containing MEM (as recommended by ATCC) at 37° C. and 5% CO2. Twenty-four hours prior to experimentation, 3×10^5 cells are seeded in 12-well plates in phenol-red free MEM. […] After an overnight incubation, RNA is extracted using conventional trizol/guanidine isothiocyanate based lysis. The isolated RNA was digested with RNase-free DNase I to remove any DNA contamination and then reverse transcribed to cDNA using random hexamer as well as oligo(dT) primers according to the manufacturer's instructions (Stratagene). Quantitative real time PCR is performed using FAM-labeled specific primers for BMP-2 and HEX-labeled specific primers for 18S rRNA (Invitrogen). All reactions are carried out in triplicate and the relative amount of mRNAs in treated versus untreated samples is calculated using the comparative CT method established by Applied Biosystems (2001). Gene expression changes of 2-fold or greater are considered significant.

Neonatal murine calvaria = assay: Calvarial Assay to Measure Bone Growth; assay type: cell-based, Swiss white mice
Method: Neonatal murine calvaria from 4 day old Swiss white mice are excised, placed into BGJ media (Sigma), and cut in half along the midline suture. One milliliter of BGJ media supplemented with 0.1% bovine serum albumin (BSA) is added to each well of a 12 well tissue culture plate (Costar) to which the relevant factors or vehicles are added. Each half calvaria is placed on a stainless steel grid in the above media at the media/air interface. Usually 4 bones per experimental group are used. […] Factors to be tested are added on Day 0 (the day of dissection) and media is changed at 24 and 96 hours (if a 7 day assay is required). Calvaria are maintained in humidified air (5% Co2), at 37° C. Following the period of incubation, the calvaria are then removed and fixed overnight in 10% formalin. The calvaria are then decalcified in 14% EDTA overnight and are then embedded in paraffin wax. Sections are then cut, using a standard microtome, along the midline suture to reveal the coronal suture and the region posterior to this suture. Four micrometer sections were taken initially and at two sequential […] depths. Sections are placed on coated glass slides (Superfrost plus, Fisher Scientific, Pittsburgh, Pa.) and stained with hematoxylin and eosin. The total and new bone area (expressed as mm^2), suture thickness (mm), and number of cells lining the bone surface are determined in the section posterior to the […] suture. Histomorphometric analysis is performed using the Osteomeasure System (Osteometrics INC, Atlanta, Ga.).

RANK-L = assay: Inhibition of RANK-L production/release (IL-1b stimulated MG-63 cells, ELISA); assay type: cell-based, human
Method: Weigh between 150 to 250 mg of each ingredient into a 15 ml conical bottomed tube. […] For solvent control, mix 1.5 ml DMSO, 0.9 ml ethanol, and 0.6 ml water. Vortex thoroughly. Sonicate for 10 minute in water bath, room temperature. Vortex thoroughly again. Dilute ingredient stocks in fresh phenol red-free media. Human osteosarcoma cell line, MG-63 (ATCC #CRL-1427), is maintained in phenol-red containing MEM (as recommended by ATCC) at 37° C. and 5% CO2. Twenty-four hours prior to experimentation, 3×10^5 cells are seeded in 12-well plates in phenol-red free MEM. […] Stock solution of TGF-beta is 30 μg/ml (from R&D Systems, cat #100-B-001). After pretreatment incubation period, […] IL-1b (Calbiochem (catalog #407615) and stock solution at 10 μg/ml, cat #407615) were added to the cell cultures for 18 hours at 37° C. Supernatant media from the treated and stimulated cells were removed and total RANK-L proteins were measured using RANK-L ELISA (in triplicate) as described by manufacturer (from APOTECH, catalog #APO-54N-016-k101). The resulting protein quantity was compared to that of media (null) treated stimulated cells to determine percent decrease in total RANK-L protein.

[1] = system: calvaria (skull bones) from 4 day old pups; assay: Calvarial Assay to Measure Inhibition of Bone Resorption (45Ca release); assay type: cell-based, CD-1 mice
Method: In order to label cells of newborn mice in utero, pregnant CD-1 female mice (at timed day 15) were injected with ^45Ca (25 uCi/mouse). […] The bones were incubated at 37° C. in a 5% CO2 humidified incubator for a period of 24 hours following which they were transferred to wells containing 1 ml media with factors added (IL-1, PTH and or compounds.) The treated bones were incubated under the above conditions for a further 72 hours. […] The results were expressed as % ^45Ca release and can be further reported as T/C ratios. For some factors and compounds, modification of this procedure can be used. As most of the osteoclasts are formed in the calvaria following the preincubation period, the factors that affect osteoclast formation may have a greater effect during the preincubation period. Thus, for a number of the compounds, they were included in the preincubation media.

[2] = system: Female, Sprague Dawley rats; assay: In Vivo Study to Measure Bone Growth - histomorphological measurements; set-up: species or system rat; details: positive control, 50 μg/kg (10 μg/200 g)/3 × per week; 35 days; vs placebo group
Method: Three different formulas were tested in an in vivo study involving female, intact rats, aged approximately 12-14 weeks, with approximate body weights between 200-250 grams. Formula 1 included dosages of quercetin anhydrate and licorice at 250 mg quercetin:250 mg licorice ethanol extract and 500 mg quercetin:500 mg licorice ethanol extract. Formula 2 included dosages of quercetin anhydrate and licorice at 250 mg quercetin:125 mg licorice ethanol extract; 500 mg quercetin:250 mg licorice ethanol extract; and 1000 mg quercetin:500 mg licorice ethanol extract. Formula 3 included dosages of quercetin and licorice at 1000 mg quercetin:200 mg licorice ethanol extract. The study lasted 35 days. Eight separate groups of rats were tested with 15 rats in each group. Two of the eight groups of rats tested were control groups. One was a placebo control group and the other group received 50 μg/kg (10 μg/200 g)/3× per week parathyroid hormone. Parathyroid hormone, known as an anabolic agent, served as a positive control. See, e.g., Turner et al., “Disuse in adult male rats attenuates the bone anabolic response to a therapeutic dose of parathyroid hormone.” J. Appl Physiol. 2006. […]
(§1) The effectiveness of the formulas on bone formation was assessed by outcome measurements that included biomechanical measurement (to assess bone strength and function information), micro-CT (to analyze virtual bone quality and function information), and histomorphology measurement (to analyze bone quality and functional information). […] These measurements were determined after 35 days of treatment.
Six animals from each group were sacrificed on day 35 following treatment. […] To determine the effect of the different formulas on bone formation, trabecula bone volume, trabecular cells number and trabecular separation were assessed by histomorphology technique. […]
Bone mineral apposition rate (MARs), also reported by Table 8, was determined by measuring the mean interlabel distance divided by the time interval (5 days) between the two fluororchromes administered. […]

[3] = system: Female, Sprague Dawley rats; assay: In Vivo Study to Measure Bone Growth - micro-CT measurements; set-up: species or system rat; details: positive control, 50 μg/kg (10 μg/200 g)/3 × per week; 35 days; vs placebo group
Method: Three different formulas were tested in an in vivo study involving female, intact rats, aged approximately 12-14 weeks, with approximate body weights between 200-250 grams. Formula 1 included dosages of quercetin anhydrate and licorice at 250 mg quercetin:250 mg licorice ethanol extract and 500 mg quercetin:500 mg licorice ethanol extract. Formula 2 included dosages of quercetin anhydrate and licorice at 250 mg quercetin:125 mg licorice ethanol extract; 500 mg quercetin:250 mg licorice ethanol extract; and 1000 mg quercetin:500 mg licorice ethanol extract. Formula 3 included dosages of quercetin and licorice at 1000 mg quercetin:200 mg licorice ethanol extract. The study lasted 35 days. Eight separate groups of rats were tested with 15 rats in each group. Two of the eight groups of rats tested were control groups. One was a placebo control group and the other group received 50 μg/kg (10 μg/200 g)/3× per week parathyroid hormone. Parathyroid hormone, known as an anabolic agent, served as a positive control. See, e.g., Turner et al., “Disuse in adult male rats attenuates the bone anabolic response to a therapeutic dose of parathyroid hormone.” J. Appl Physiol. 2006. Vol. 101:881-886, the entire contents of which are incorporated herein by reference.
Table 7 below indicates the formula given to each of the 8 test groups. The dosages in Table 7 are based on the recommended human daily dosages. FDA dose conversion formula (Human equivalent dose (HED, mg/kg)=rat dose in mg/kg×(rat weight in kg/human weight in kg)^0.33) was used to convert the human dose to the rat dose. HED=rat NOAEL×(W-rat/W-human)^(1-b), b=0.67.
Female, Sprague Dawley rats were used (200-250 gm each, ˜12-14 weeks old). Animals were fed at 15 gm/day, which included either a placebo diet or one of the formulas listed above, for a period of 35 days from the beginning of the experiment. Chow was made available each morning to the rats at the rate of 15 grams/rat/day. The rats were allowed free access to water and housed in appropriate cages for the entire experiment. Unrestricted activity was allowed during the entire experiment, which lasted 35 days.
as §1, with “treatment. […]” for “treatment.”
Obtaining information from a wide range of parameters such as bone mineral density (BMD), bone volume (% bone volume/total volume), trabecular number, and trabecular separation is critical for bone structure assessment quantitatively and qualitatively. […]

[4] = system: Female, Sprague Dawley rats; assay: In Vivo Study to Measure Bone Growth - biomechanical measurements; set-up: species or system rat; details: positive control, 50 μg/kg (10 μg/200 g)/3 × per week; 35 days; vs placebo group
Method: Three different formulas were tested in an in vivo study involving female, intact rats, aged approximately 12-14 weeks, with approximate body weights between 200-250 grams. Formula 1 included dosages of quercetin anhydrate and licorice at 250 mg quercetin:250 mg licorice ethanol extract and 500 mg quercetin:500 mg licorice ethanol extract. Formula 2 included dosages of quercetin anhydrate and licorice at 250 mg quercetin:125 mg licorice ethanol extract; 500 mg quercetin:250 mg licorice ethanol extract; and 1000 mg quercetin:500 mg licorice ethanol extract. Formula 3 included dosages of quercetin and licorice at 1000 mg quercetin:200 mg licorice ethanol extract. The study lasted 35 days. […]
as §1
Besides bone mass and bone volume evaluation, bone strength was examined mechanically using two different parameters. One parameter measured the maximum force needed to fracture the bone and the other determined the stiffness (the elasticity) of bone. […]

## CC(C)Oc1ccc2c(=O)c(-c3ccccc3)coc2c1 [I, 7-isopropoxy isoflavone]
BMP-2 promoter; 0.05 μg/ml
  BMP2 Promoter assay (ratio to control): 1.00 FOLD
BMP-2 promoter; 0.1 μg/ml
  BMP2 Promoter assay (ratio to control): 0.90 FOLD
BMP-2 promoter; 0.2 μg/ml
  BMP2 Promoter assay (ratio to control): 1.00 FOLD
BMP-2 promoter; 0.4 μg/ml
  BMP2 Promoter assay (ratio to control): 0.90 FOLD
BMP-2 promoter; 0.8 μg/ml
  BMP2 Promoter assay (ratio to control): 1.20 FOLD
BMP-2 promoter; 1.6 μg/ml
  BMP2 Promoter assay (ratio to control): 1.50 FOLD
BMP-2 promoter; 3.2 μg/ml
  BMP2 Promoter assay (ratio to control): 2.10 FOLD
BMP-2 promoter; 6.3 μg/ml
  BMP2 Promoter assay (ratio to control): 2.90 FOLD
BMP-2 promoter; 12.5 μg/ml
  BMP2 Promoter assay (ratio to control): 3.60 FOLD
BMP-2 promoter; 25 μg/ml
  BMP2 Promoter assay (ratio to control): 3.90 FOLD
BMP-2 promoter; 50 μg/ml
  BMP2 Promoter assay (ratio to control): 4.40 FOLD
BMP-2 promoter; 100 μg/ml
  BMP2 Promoter assay (ratio to control): 4.50 FOLD
BMP-2 protein; 1 μg/ml
  BMP-2 Protein Expression: 2.4 FOLD
BMP-2 protein; 10 μg/ml
  BMP-2 Protein Expression: 1.8 FOLD
BMP-2 protein; 100 μg/ml
  BMP-2 Protein Expression: 1.8 FOLD
BMP-2
  Fold Change in Gene Expression: No effect
Neonatal murine calvaria; 1 μg/ml
  Calvarial Assay Results- Bone formation: 2.44 ± 0.66 mm^2 × 10^−3
Neonatal murine calvaria; 10 μg/ml
  Calvarial Assay Results- Bone formation: 6.05 ± 1.12 mm^2 × 10^−3
Neonatal murine calvaria; 100 μg/ml
  Calvarial Assay Results- Bone formation: 7.04 ± 0.69^a mm^2 × 10^−3
RANK-L; 10 μg/ml, listed as Ipriflavone (Ostivone)
  RANK-L inhibition (%): 0 ± 4.3% and 2.8 ± 3.9% and 0 ± 2.5%
RANK-L; tested at 1 μg/ml
  % Change in Production/Release Levels (compared to untreated control): No effect
[1]; IL-1 + 1 μg/ml
  Inhibition of Bone Resorption/Release of Ca^2+, % Release: 38.00 ± 1.41 % Release
  Inhibition of Bone Resorption/Release of Calcium By Combinations of Extracts, % Release: 29.75 ± 4.54 % Release
[1]; IL-1 + 10 μg/ml
  Inhibition of Bone Resorption/Release of Ca^2+, % Release: 32.50 ± 3.30 % Release
  Inhibition of Bone Resorption/Release of Calcium By Combinations of Extracts, % Release: 30.25 ± 4.03 % Release
[1]; IL-1 + 100 μ/ml
  Inhibition of Bone Resorption/Release of Ca^2+, % Release: 19.25 ± 1.03^a % Release
[1]; IL-1 ± 100 μg/ml
  Inhibition of Bone Resorption/Release of Calcium By Combinations of Extracts, % Release: 17.50 ± 1.66^a % Release

B1: PTH: parathyroid hormone, anabolic agent, positive control (protein, UniProt P01270 32-115, looked up)
Parathyroid hormone: SVSEIQLMHNLGKHLNSMERVEWLRKKLQDVHNFVALGAPLAPRDAGSQRPRKKEDNVLVESHEKSLGEADKADVNVLTKAKSQ
modifications: Parathyroid hormone
notes: parathyroid hormone, anabolic agent, positive control
[2]
  Trabecular Separation: −38.30%
  Trabecular thickness: 7.35%
  reduction in trabecular separation: 38.30%
[3]
  % Bone Volume/ Total Volume: 32%^a
  Bone Mineral Density (BMD): 86%^a
  Trabecular Number (N/6 mm^2): 25%^a
  Trabecular separation (mm): −28%^a
[4]
  Bone Stiffness: 0.0%
  Maximum Force Required to Fracture Bones: 0.0%
